According to patent US11608338B2, “Imidazolonylquinolines and the use thereof as ATM kinase inhibitors” (priority 2015, dated 2023):

What was measured:
PI3K p110β/p85α (human) = PI3K p110β/p85α (human) (Homo sapiens (Human), UniProt P42338); experiment: PI3K p110β/p85α (human), non-radioactive assay (HTRF); format: biochemical; conditions: ATM versus PI3Kbeta
Experimental: PI3K p110β/p85α (Human), Non-Radioactive Assay
(§1) PI3K p110β/p85α (human) was incubated in an assay buffer comprising 10 μM phosphatidylinositol 4,5-bisphosphate and MgATP (concentration as necessary). The reaction was initiated by addition of MgATP solution. After an incubation time of 30 min at room temperature, the reaction was stopped by addition of a solution consisting of EDTA and biotinylated phosphatidylinositol 3,4,5-trisphosphate. Finally, the detection buffer, consisting of a europium-labelled anti-GST monoclonal antibody, a GST-labelled GRP1 PH domain and streptavidin allophycocyanin, was added. The plate was read out via homogeneous time-resolved fluorescence (HTRF) and the corresponding signals were evaluated via the formula HTRF=10000×(Em665 nm/Em620 nm).

mTOR (human) = mTOR (human) (Homo sapiens (Human), UniProt P42345); experiment: mTOR (human) radiometric kinase assay; format: biochemical; conditions: ATM versus mTOR
Experimental: Furthermore, the effect, in particular inhibition, of other kinases and thus the selectivity of the compounds according to the invention can be determined with the aid of the following assay:
mTOR (human) was incubated with 50 mM HEPES pH 7.5, 1 mM EGTA, 0.01% Tween 20, 2 mg/ml of the substrate, 3 mM MnCl2 and [γ-^33P-ATP] (specific activity approximately 500 cpm/pmol, concentration as necessary). The reaction was initiated by addition of MgATP solution. After incubation at room temperature for 40 minutes, the reaction was stopped by addition of 3% phosphoric acid. 10 μl of the reaction solution were then transferred dropwise onto a P30 filtermat and washed three times for 5 min in 75 mM phosphoric acid and once in methanol, dried and evaluated by means of liquid scintillation counting.

[1] = test system: phosphorylation of CHK2 (Thr68) in HCT116 cells; experiment: Cellular pCHK2 assay, bleomycin-induced phosphorylation of CHK2 (phospho-Thr68), immunofluorescence high content; format: cell-based, human; conditions: 10 μM bleomycin, 4 h
From the text: For the identification of substances which inhibit the phosphorylation of the protein kinase CHK2 at the amino acid threonine 68, an immunofluorescence-based “high content” analysis assay was used in HCT116 cells.
In vitro cell-based immunofluorescence assay for the identification of inhibitors of bleomycin-induced phosphorylation of CHK2 (phospho-Thr68) in the human colon carcinoma cell line HCT116:
HCT116 cells are sown out in a defined cell density in 384-well plates in culture medium (DMEM high glucose, 2 mM GlutaMax, 1 mM Na pyruvate, 10% FCS) and incubated overnight at 37° C. and 10% of CO2. […] After incubation for four hours at 37° C. and 10% of CO2, the cells are fixed (5 min, 4% formaldehyde in PBS), permeabilised (10 min, 0.2% Triton X-100 in PBS) and, after blocking of nonspecific binding sites (10% goat serum, 1% BSA in PBS), incubated overnight at 4° C. with a specific anti-pCHK2 antibody (cell signalling #2661). pCHK2 (Thr68) is determined using an Alexa488-labelled secondary anti-rabbit IgG antibody. […] The pCHK2 signal is detected using a high-content imager (Molecular Devices IMX Ultra) and automatic image analysis using the MetaXpress software belonging to the instrument. The number of cell nuclei which have a pCHK2 signal above a defined background is determined.

[2] = target: human recombinant ATM (ataxia telangiectasia mutated) kinase (Homo sapiens (Human), UniProt Q13315); experiment: ATM kinase assay, determination of ATM inhibition (IC50 ATM), TR-FRET; format: biochemical; conditions: 10 μM ATP, p53 substrate
Experimental: ATM Kinase Assay—Determination of ATM Inhibition (IC50 ATM):
The IC50 value was determined with the aid of a biochemical ATM kinase assay. The assay consists of two steps: the enzymatic reaction and the detection step. Firstly, ATM (ataxia telangiectasia mutated) protein and the test substance are incubated at different concentrations with addition of substrate protein p53 and ATP. ATM mediates the phosphorylation of p53 at several positions, including at amino acid S15. The amount of phosphorylated p53 is determined with the aid of specific antibodies and the TR-FRET technique. The enzymatic ATM assay is carried out as TR-FRET (HTRF™, Cisbio Bioassays) based 384-well assay. In the first step, purified human recombinant ATM (human ATM, full length, GenBank ID NM_000051, expressed in a mammal cell line) is incubated in assay buffer for 15 minutes with the ATM inhibitor in various concentrations and without test substance as negative or neutral control. The assay buffer comprises 25 mM HEPES pH 8.0, 10 mM Mg(CH3COO)2, 1 mM MnCl2, 0.1% BSA and 0.01% Brij® 35, 5 mM dithiothreitol (DTT). […] After incubation, usually for 2 hours (between 1.5 and 15 h), for signal development, the plates are analysed in a plate reader (EnVision, PerkinElmer) using TRF mode (and with laser excitation). […]

PI3K (p120γ) (human) = PI3K (p120γ) (human) (Homo sapiens (Human), UniProt P48736); experiment: PI3K (p120γ) (human), non-radioactive assay (HTRF); format: biochemical; conditions: ATM versus PI3Kgamma
Chain of PI3K (p120γ) (human) (P48736 whole entry): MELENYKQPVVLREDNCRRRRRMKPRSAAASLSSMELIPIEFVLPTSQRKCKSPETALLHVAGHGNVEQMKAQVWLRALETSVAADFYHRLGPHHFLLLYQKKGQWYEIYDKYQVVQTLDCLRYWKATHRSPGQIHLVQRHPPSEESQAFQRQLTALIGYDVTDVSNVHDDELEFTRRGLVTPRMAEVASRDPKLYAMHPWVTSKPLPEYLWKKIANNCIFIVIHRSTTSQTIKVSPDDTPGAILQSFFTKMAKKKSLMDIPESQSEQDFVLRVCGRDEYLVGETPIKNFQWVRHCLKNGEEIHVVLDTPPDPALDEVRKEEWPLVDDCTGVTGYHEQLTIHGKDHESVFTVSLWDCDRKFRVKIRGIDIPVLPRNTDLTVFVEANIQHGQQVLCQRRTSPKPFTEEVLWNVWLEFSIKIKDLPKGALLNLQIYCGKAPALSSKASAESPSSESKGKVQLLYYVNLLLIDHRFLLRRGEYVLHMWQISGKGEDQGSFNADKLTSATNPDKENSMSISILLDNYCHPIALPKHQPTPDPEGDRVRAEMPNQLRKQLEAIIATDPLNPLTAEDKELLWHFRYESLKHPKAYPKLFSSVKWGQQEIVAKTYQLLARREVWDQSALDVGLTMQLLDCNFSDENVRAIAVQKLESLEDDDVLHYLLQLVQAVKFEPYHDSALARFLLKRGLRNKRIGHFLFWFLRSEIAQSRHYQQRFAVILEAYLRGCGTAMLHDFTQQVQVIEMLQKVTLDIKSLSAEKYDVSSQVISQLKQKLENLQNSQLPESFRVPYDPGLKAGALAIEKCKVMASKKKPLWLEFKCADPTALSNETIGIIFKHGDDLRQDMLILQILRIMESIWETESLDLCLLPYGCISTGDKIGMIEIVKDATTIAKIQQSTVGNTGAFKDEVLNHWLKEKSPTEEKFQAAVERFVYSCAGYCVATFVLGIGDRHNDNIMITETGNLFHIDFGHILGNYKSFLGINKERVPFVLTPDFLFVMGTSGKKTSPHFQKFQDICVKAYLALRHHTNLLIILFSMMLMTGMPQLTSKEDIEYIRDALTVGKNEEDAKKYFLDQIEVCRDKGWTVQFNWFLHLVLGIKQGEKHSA
Experimental: PI3K (p120γ) (Human), Non-Radioactive Assay
as §1, with “(p120γ)” for “p110β/p85α”, “nm). • MgATP=magnesium 5′-O-[hydroxy({[(hydroxyphosphinato)oxy]phosphinato}oxy)phosphoryl]adenosine • MgCl2=magnesium dichloride • EGTA=ethylene glycol bis(aminoethyl ether) N,N,N′,N′-tetraacetic acid • Tween 20=polysorbate 20 Medicament/Pharmaceutical Composition” for “nm).”

PI3K p110δ/p85α (human) = PI3K p110δ/p85α (human) (Homo sapiens (Human), UniProt O00329); experiment: PI3K p110δ/p85α (human), non-radioactive assay (HTRF); format: biochemical; conditions: ATM versus PI3Kdelta
Chain of PI3K p110δ/p85α (human) (O00329 whole entry): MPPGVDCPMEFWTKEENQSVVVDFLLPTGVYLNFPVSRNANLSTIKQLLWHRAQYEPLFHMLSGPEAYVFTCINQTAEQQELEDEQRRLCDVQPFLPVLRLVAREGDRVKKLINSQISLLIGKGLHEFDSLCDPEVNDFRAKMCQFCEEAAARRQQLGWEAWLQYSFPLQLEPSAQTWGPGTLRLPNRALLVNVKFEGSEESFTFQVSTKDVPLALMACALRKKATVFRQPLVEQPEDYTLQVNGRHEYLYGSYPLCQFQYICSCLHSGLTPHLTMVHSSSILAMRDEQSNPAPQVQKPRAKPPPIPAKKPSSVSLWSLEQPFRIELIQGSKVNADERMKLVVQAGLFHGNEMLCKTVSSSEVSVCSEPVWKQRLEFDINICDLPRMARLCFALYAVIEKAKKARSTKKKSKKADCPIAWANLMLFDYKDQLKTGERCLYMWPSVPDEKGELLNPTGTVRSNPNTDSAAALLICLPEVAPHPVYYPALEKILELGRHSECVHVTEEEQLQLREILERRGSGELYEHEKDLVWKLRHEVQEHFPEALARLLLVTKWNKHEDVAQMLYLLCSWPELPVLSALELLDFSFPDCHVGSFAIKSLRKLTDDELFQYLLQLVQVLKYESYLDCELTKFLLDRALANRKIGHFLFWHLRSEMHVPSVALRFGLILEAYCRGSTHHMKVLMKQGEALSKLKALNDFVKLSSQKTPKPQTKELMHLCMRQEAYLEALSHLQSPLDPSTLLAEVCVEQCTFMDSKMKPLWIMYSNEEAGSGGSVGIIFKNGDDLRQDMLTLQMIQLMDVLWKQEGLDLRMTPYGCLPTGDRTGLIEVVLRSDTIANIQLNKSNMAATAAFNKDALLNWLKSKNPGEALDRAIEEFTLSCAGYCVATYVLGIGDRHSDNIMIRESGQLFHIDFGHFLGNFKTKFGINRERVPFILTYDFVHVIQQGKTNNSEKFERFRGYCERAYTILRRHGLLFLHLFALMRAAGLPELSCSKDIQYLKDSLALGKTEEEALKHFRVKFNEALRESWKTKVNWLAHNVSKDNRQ
Chain of PI3K p110δ/p85α (human) (P27986 whole entry partner): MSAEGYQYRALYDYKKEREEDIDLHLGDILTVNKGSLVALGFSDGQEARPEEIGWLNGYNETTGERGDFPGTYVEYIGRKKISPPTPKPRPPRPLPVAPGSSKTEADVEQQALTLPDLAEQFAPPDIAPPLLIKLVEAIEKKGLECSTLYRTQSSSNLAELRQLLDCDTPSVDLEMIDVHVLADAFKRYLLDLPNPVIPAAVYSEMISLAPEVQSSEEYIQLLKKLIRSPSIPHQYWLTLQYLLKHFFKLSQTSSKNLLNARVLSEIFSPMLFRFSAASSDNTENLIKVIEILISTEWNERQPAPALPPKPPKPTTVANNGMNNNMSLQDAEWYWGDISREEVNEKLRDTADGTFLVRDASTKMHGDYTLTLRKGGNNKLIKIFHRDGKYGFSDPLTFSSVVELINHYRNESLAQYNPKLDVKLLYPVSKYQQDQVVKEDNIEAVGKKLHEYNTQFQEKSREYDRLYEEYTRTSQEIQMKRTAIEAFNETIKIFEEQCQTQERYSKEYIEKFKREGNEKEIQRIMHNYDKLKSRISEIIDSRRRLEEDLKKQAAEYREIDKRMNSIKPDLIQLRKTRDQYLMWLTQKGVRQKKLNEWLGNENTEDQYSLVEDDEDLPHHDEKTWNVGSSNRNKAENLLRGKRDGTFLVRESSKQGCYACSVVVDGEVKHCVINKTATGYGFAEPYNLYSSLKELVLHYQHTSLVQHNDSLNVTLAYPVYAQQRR
Experimental: PI3K p110δ/p85α (Human), Non-Radioactive Assay
as §1, with “p110δ/p85α” for “p110β/p85α”

PI3K p110α/p85α (human) = PI3K p110α/p85α (human) (Homo sapiens (Human), UniProt P42336); experiment: PI3K p110α/p85α (human), non-radioactive assay (HTRF); format: biochemical; conditions: ATM versus PI3Kalpha
Chain of PI3K p110α/p85α (human) (P42336 whole entry): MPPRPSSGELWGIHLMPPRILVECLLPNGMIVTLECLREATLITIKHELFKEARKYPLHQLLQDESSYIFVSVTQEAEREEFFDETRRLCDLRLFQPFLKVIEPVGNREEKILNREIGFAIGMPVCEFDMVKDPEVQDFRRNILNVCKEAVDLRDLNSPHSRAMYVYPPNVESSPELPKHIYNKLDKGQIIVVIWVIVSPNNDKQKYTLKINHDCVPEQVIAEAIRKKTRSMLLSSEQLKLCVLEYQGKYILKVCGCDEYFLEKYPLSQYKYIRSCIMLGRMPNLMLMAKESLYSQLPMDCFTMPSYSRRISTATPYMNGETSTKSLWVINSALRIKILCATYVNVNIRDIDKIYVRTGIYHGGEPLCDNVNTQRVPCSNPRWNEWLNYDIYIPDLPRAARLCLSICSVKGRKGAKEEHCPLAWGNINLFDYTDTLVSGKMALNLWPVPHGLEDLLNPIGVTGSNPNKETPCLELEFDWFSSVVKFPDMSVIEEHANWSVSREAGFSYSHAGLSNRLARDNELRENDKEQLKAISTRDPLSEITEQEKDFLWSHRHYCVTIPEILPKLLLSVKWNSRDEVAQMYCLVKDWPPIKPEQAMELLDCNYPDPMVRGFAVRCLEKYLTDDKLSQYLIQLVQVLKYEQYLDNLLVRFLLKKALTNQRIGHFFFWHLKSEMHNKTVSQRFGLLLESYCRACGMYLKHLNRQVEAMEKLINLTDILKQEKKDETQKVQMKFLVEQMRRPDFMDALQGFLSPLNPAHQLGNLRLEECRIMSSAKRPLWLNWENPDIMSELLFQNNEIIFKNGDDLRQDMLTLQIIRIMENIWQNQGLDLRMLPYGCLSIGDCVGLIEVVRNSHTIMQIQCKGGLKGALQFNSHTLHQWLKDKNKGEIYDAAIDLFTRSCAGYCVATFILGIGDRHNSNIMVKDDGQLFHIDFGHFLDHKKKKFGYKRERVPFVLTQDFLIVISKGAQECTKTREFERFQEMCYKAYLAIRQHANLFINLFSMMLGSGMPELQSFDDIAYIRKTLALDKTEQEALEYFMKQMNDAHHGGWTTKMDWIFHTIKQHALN
Chain of PI3K p110α/p85α (human) (P27986 whole entry partner): as the sequence (P27986 whole entry partner) above
Experimental: PI3K p110α/p85α (Human), Non-Radioactive Assay
as §1, with “p110α/p85α” for “p110β/p85α”, “After” for “After an”, “incubation” for “incubation time of 30 min”, “temperature for 40 minutes,” for “temperature,”

Chain of PI3K p110β/p85α (human) (P42338 whole entry): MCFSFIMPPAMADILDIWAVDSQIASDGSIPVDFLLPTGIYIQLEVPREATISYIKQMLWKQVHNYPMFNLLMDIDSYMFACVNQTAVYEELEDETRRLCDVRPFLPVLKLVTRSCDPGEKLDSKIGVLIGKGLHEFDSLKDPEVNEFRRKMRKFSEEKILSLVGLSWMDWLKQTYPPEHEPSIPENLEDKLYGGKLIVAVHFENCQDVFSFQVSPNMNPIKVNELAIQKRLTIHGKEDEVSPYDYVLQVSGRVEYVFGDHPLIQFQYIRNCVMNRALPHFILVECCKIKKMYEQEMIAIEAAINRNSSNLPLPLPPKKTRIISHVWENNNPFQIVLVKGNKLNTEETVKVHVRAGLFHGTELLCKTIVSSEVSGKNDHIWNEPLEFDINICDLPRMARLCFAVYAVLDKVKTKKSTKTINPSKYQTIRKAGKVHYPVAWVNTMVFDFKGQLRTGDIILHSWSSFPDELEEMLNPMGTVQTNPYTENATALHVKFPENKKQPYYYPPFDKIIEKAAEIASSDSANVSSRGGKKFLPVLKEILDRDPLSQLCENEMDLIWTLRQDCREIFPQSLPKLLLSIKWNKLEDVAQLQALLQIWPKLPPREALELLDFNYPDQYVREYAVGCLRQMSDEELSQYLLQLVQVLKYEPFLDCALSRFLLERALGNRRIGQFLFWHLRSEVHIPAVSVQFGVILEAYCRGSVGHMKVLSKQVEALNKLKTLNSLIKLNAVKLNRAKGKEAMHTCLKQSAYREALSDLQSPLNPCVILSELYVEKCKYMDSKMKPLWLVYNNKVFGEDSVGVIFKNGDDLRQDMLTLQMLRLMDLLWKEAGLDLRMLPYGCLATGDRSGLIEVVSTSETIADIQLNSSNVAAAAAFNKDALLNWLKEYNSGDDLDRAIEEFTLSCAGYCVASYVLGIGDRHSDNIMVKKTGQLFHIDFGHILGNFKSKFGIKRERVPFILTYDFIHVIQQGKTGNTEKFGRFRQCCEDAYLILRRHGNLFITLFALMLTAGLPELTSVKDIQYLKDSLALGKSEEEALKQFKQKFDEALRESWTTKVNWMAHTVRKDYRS
Chain of PI3K p110β/p85α (human) (P27986 whole entry partner): as the sequence (P27986 whole entry partner) above

Compound	ratio IC50 (ATM):IC50 (PI3Kbeta), selectivity with respect to PI3Kbeta (PI3K p110β/p85α (human))	ratio IC50 (ATM):IC50 (mTOR), selectivity with respect to mTOR (mTOR (human))	IC50 [1]	IC50 [2]	ratio of IC50 (ATM) and IC50 (PI3Kgamma), selectivity with respect to PI3Kgamma (PI3K (p120γ) (human))	ratio of IC50 (ATM) and IC50 (PI3Kdelta), selectivity with respect to PI3Kdelta (PI3K p110δ/p85α (human))	ratio of IC50 (ATM) and IC50 (PI3Kalpha), selectivity with respect to PI3Kalpha (PI3K p110α/p85α (human))
1-(3,5-Dimethyl-1H-pyrazol- 4-yl)-7-methoxy-3-methyl-8- (1-methyl-1H-pyrazol-4-yl)- 1,3-dihydroimidazo[4,5-c]- quinolin-2-one [Example 118]	at least 2000 times	at least 2000 times	200 to 1000 nM	< 10 nM			
COc1cc2ncc3[nH]c(=O)n(-c4ncc(F)cc4F)c3c2cc1-c1cn(C)nc1C [Example 108, 1-(3,5-Difluoropyridin-2-yl)-8-(1,3-dimethyl-1H-pyrazol-4-yl)-7-methoxy-1,3-dihydroimidazo[4,5-c]-quinolin-2-one]	at least 2000 times				at least 2000 times	at least 2000 times	at least 2000 times
CCc1cncc(F)c1-n1c(=O)n(C)c2cnc3cc(OC)c(-c4cn[nH]n4)cc3c21 [Example 125, 1-(3-Ethyl-5-fluoropyridin-4-yl)-7-methoxy-3-methyl-8-(2H-1,2,3-triazol-4-yl)-1,3-dihydroimidazo[4,5-c] quinolin-2-one]	at least 2000 times	at least 2000 times			at least 2000 times	at least 2000 times	at least 2000 times
COc1cc2ncc3c(c2cc1-c1ccc2nc(C)[nH]c2c1)n(-c1c(F)cncc1OC)c(=O)n3C [Example 136, 1-(3-Fluoro-5-methoxy-pyridin-4-yl)-7-methoxy-3-methyl-8-(2-methyl-3H-benzoimidazol-5-yl)-1,3-dihydroimidazo[4,5-c]-quinolin-2-one]	at least 2000 times	at least 2000 times			at least 2000 times		
[2H]C([2H])([2H])Oc1cncc(F)c1-n1c(=O)n(C)c2cnc3cc(OC)c(-c4cnn(C)c4)cc3c21 [Example 145, 1-[3-Fluoro-5-(trideuterio-methoxy)-4-pyridyl]-7-methoxy-3-methyl-8-(1-methylpyrazol-4-yl)imidazo-[4,5-c]quinolin-2-one]	at least 2000 times	at least 2000 times			at least 2000 times	at least 2000 times	
COc1ccc(-c2cc3c(cc2OC)ncc2c3n(-c3cn(C)nc3F)c(=O)n2C)cn1 [Example 159, 1-(3-Fluoro-1-methyl-1H-pyrazo1-4-yl)-7-methoxy-8-(6-methoxypyridin-3-yl)-3-methyl-1,3-dihydroimidazo-[4,5-c]quinolin-2-one]	at least 2000 times	at least 2000 times					
COc1cc2ncc3c(c2cc1-c1cnn(C)c1)n(-c1ncc(OCS(C)(=O)=O)cc1F)c(=O)n3C [Example 201, 1-(3-Fluoro-5-methyl-sulfonylmethoxypyridin-2-yl)-7-methoxy-3-methyl-8-(1-methyl-1H-pyrazol-4-yl)-1,3-dihydroimidazo[4,5-c]-quinolin-2-one]	at least 2000 times	at least 2000 times			at least 2000 times	at least 2000 times	at least 2000 times
